Like-named read-outs stand apart in the source and are kept apart here.
What was measured:
[1] = cytotoxicity assay, A549; format: cell-based; details: human, A549 cells
Procedure: (§1) The cytotoxicity assay was performed in accordance with the published protocols. The antimicrobial assay was performed according to the method described previously.

[2] = tested on: RAW 264.7 cells; experiment: iNOS assay: inhibition of LPS-stimulated NO production (Griess reaction); format: cell-based, mouse; details: 18 h
Procedure: Mouse macrophage RAW 264.7 cells obtained from the American Type Culture Collection (ATCC, Rockville, MD, USA) were cultured in Dulbecco’s modified Eagle’s medium (DMEM) supplemented with 10% heat-inactivated fetal bovine serum (FBS) with antibiotics-antimycotics (PSF; 100 units/mL penicillin G sodium, […] streptomycin, and 250 ng/mL amphotericin B). The cells were seeded in 24-well plates (2 × 10^5 cells/mL). The next day, the culture media was changed to 1% FBS-DMEM, and the samples were treated with the test compounds. After pretreatment with the drug for 1 h, 1 μg/mL lipopolysaccharides (LPS) was added to stimulate NO production. The cells were incubated for an additional 18 h, and the amount of NO produced in the supernatant was determined by Griess reaction. Then, the absorbance was measured at 540 nm, and the nitrite concentration was determined by comparison with a sodium nitrite standard curve. The percent inhibition was calculated using the following formula: [1 − (NO level of test samples/NO levels of vehicle-treated control)] × 100. The IC50 values were calculated through nonlinear regression analysis using TableCurve 2-D v5.01 (Systat Software Inc., San Jose, CA, USA). At the same time, MTT assays were also performed to test cell viability. MTT solution (final concentration of 500 μg/mL) was added to the cells, and they were incubated for 4 h at 37 °C. The culture media was removed, and the remaining dyes were dissolved in DMSO. The absorbance of each well was measured at 570 nm using a VersaMax ELISA microplate reader (Molecular Devices, Sunnyvale, CA, USA). The percent survival was determined by comparison with a control group (LPS+).
Figure S54. Inhibition of NO production of herqueinone compounds purified from Penicillium herquei. The effects of compounds on NO production in RAW 264.7 cells. (A) Cells were pre-treated with compounds (20 uM) and AMT (0.2 uM) for 1 h and LPS (1 ug/mL ) was added further incubated for 18 h . The amount of iNOS was examined by Griess reaction. (B) After iNOS level was measured, cell viability was tested using MTT assay. The values are expressed as the means ± SD of triplicate tests. (C) RAW 264.7 cells were pretreated with various concentrations of compound 7 and AMT (0.2 uM) for 1 h, and LPS (1 ug/mL) was added further incubated for 18 h. The amount of iNOS was examined b y Griess reaction. (D) Cell viability was tested by MTT assay. The values are expressed as the means ± SD of triplicate tests.

[3] = tested on: HUVECs; experiment: VEGF-induced tube formation assay (angiogenesis); format: cell-based, human; details: VEGF 50 ng/mL, 6 h, read-out: IC50, inhibition of tube formation
Procedure: Human umbilical vascular endothelial cells (HUVECs) were purchased from the American Type Culture Collection (ATCC, Rockville, MD, USA), and cultured in EGM-2 (Lonza, Walkerswille, MD, USA) supplemented with 10% FBS and antibiotics-antimycotics (PSF). The cells were maintained at 37 °C under a humidified atmosphere containing 5% CO2. A 96-well plate was coated with Matrigel (Corning) for 30 min at 37 °C under a humidified atmosphere containing 5% CO2. HUVECs (1.8 × 10^4 cells/well) were mixed with the test compounds in 0.5% FBS EBM-2 medium with VEGF (50 ng/mL) or 0.5% FBS EBM-2 medium only for the VEGF negative control. The cells were incubated for 6 h and photographed using an inverted microscope (Olympus Optical Co. Ltd., Tokyo, Japan). Images were quantified with an angiogenesis analyzer using ImageJ software. Tube formation activity was calculated using the following formula: [(Total segment # (tested compound) − Total segment # (VEGF−)]/[Total segment # (VEGF+) − Total segment # (VEGF−)] × 100 (# stands for tubule segment number). The IC50 values were calculated through nonlinear regression analysis using TableCurve 2-D v5.01 (Systat Software Inc., San Jose, CA, USA). Cell viabilities were evaluated with the MTT assay. HUVECs (0.8 × 10^4 cells/well) were seeded into a 96-well plate and indicated for 1 day. The culture medium was replaced with serum-free medium, and the cells were incubated overnight. After starvation, the cells were treated with the test compounds and VEGF (50 ng/mL) in 2% FBS EBM-2 medium. Cells were incubated for a further 24 h, and MTT solution (final concentration of 500 μg/mL) was added to the cells to measure the cell viability. The formazan products were dissolved in DMSO. The absorbance of each well was measured at 570 nm using a VersaMax ELISA microplate reader (Molecular Devices, Sunnyvale, CA, USA).
Figure S55. Angiogenesis activities of herqueinone compounds purified from Penicillium herquei. Effects of 6 on VEGF-induced tube formation and cell viability. Tube formation activity was measured after cells were incubated with indicated concentrations of 6 on matrigel-coated 96wells for 6 h in the presence of VEGF (50 ng/mL) compared to control in the absence of VEGF. Cell viability was measured by MTT assay after treat with indicated concentrations of 6 in the presence of VEGF (50 ng/mL) for 24 h. The values are expressed as the means ± SD of triplicate tests. * p ≤ 0.05, ** p ≤ 0.01 and *** p ≤ 0.001.

[4] = cytotoxicity assay, K562; format: cell-based; details: human, K562 cells
Procedure: as §1

[5] = tested on: hBM-MSCs; experiment: adiponectin production assay during adipogenesis (ELISA); format: cell-based; details: Homo sapiens
Procedure: Human bone marrow-mesenchymal stem cells (hBM-MSCs) were purchased from Lonza, Inc. (Walkersville, MD, USA) and cultured in low-glucose (1 g/L) DMEM supplemented with 10% FBS, penicillin-streptomycin, and Glutamax^TM (Invitrogen, Carlsbad, CA, USA). To induce adipogenesis, the cell growth medium was replaced with high-glucose (4.5 g/L) DMEM supplemented with 10% FBS, penicillin-streptomycin, 10 μg/mL insulin, 0.5 μM dexamethasone, and 0.5 mM 3-isobutyl-1-methylxanthine (IBMX) (IDX conditions). IBMX, pioglitazone, and aspirin were purchased from Sigma-Aldrich (St. Louis, MO, USA). hBM-MSCs were stained with 0.2% oil red O (ORO) reagent for 10 min at 24 °C, and then washed with H2O four times. Following a 10-min elution with isopropanol, the absorbance was measured at 500 nm using a spectrophotometer. To visualize the nucleus, the hBM-MSCs were counterstained with hematoxylin reagent for 2 min and then washed twice with H2O. The level of adipocyte differentiation was observed and counted using an inverted phase microscope. A Quantikine immunoassay kit (R&D Systems, Minneapolis, MN, USA) was used for quantitative determination of adiponectin in the cell culture supernatants.
Figure S56. PPARγ binding and adiponectin secretion -promoting activities of herqueinone compounds purified from Penicillium herquei. (A) TR-FRET based competitive PPARγ binding assays were performed for herqueinone compounds 1-11. (B) Ki values for compounds 1, 3, 4, 7, 8 and 9 were calculated based on the Cheng and Prusoff analysis. (C) Herqueinone compounds were added to the IDX condition when adipogenesis was induced in hBM-MSCs. On the fifth day, the cell culture supernatants were harvested.
ELISA was performed to measure the level of adiponectin. Positive controls were pioglitazone and aspirin.
(D) The concentration dependency of herqueinone compounds 1, and 9 on adiponectin secretion-promoting activity was determined. Values represent means ± SD (n=3); * p ≤ 0.05 and ** p ≤ 0.01.
(1 picture or pasted object on this page, not shown here)

[6] = Mus musculus, RAW264.7, LPS 1 μg/mL
[7] = IDX conditions, read-out: IC50 values, adiponectin secretion-promoting effects
[8] = adiponectin secretion, Table S1, read-out: EC50 hBM-MSC(B7)

| Compound | IC50 [1] | IC50 [2, 6] | IC50 ([3]; Homo sapiens, HUVEC) | IC50 [4] | IC50 ([2]; LPS 1 μg/mL) | EC50 [5, 7] | EC50 [5, 8] | IC50 [3] |
| --- | --- | --- | --- | --- | --- | --- | --- | --- |
| CC(=O)CC1(O)C(=O)C2=c3c(c(O)cc(C)c3=C3O[C@H](C)C(C)(C)[C@]3(O)C2=O)C1=O (single isomer, unassigned) [Compound 4, Oxopropylisoherqueinone A] | > 10 µM | > 20 µM | > 40 µM | > 10 µM |  |  |  |  |
| CC1CCN=C(N)S1 (stereo not shown) [AMT, reference compound] |  |  |  |  | 0.2 µM |  |  |  |
| COc1c(O)c2c3c(c1O)C(=O)[C@@]1(O)C(=C3C(C)=C(O)C2=O)O[C@@H](C)C1(C)C [Compound 1, ent-Peniciherqueinone] | > 10 µM | > 20 µM | > 40 µM | > 10 µM |  | 57.5 µM | 57.5 µM |  |
| CC1=C(O)C(=O)c2c(O)c(O)c(O)c3c2C1=C1O[C@@H](C)C(C)(C)[C@@]1(O)C3=O [Compound 2, 12-Hydroxynorherqueinone] | > 10 µM | > 20 µM | > 40 µM | > 10 µM |  |  |  |  |
| COc1c(O)c2c3c(c1O)C(=O)[C@]1(O)C(=C3C(C)=CC2=O)O[C@H](C)C1(C)C [Compound 3, ent-Isoherqueinone] | > 10 µM | > 20 µM | > 40 µM | > 10 µM |  |  |  |  |
| CC(=O)CC1(O)C(=O)C2=c3c(c(O)cc(C)c3=C3O[C@H](C)C(C)(C)[C@]3(O)C2=O)C1=O (stereo partly shown) [Compound 5, Oxopropylisoherqueinone B] |  |  |  |  | > 20 µM |  |  | > 40 µM |
| Cc1cc(O)c2c3c1=C1O[C@@H](C)C(C)(C)[C@@]1(O)C(=O)C=3C(=O)OC2=O [Compound 6, 4-Hydroxysclerodin] | > 10 µM | > 20 µM | 20.9 µM | > 10 µM |  |  |  |  |
| CC(=O)CC1(O)C(=O)c2c(O)cc(C)c3c4c(c(O)c(c23)C1=O)C(C)(C)[C@@H](C)O4 (stereo partly shown) [Compound 7, acetone adduct of the triketone] | > 10 µM | 3.2 µM | > 40 µM | > 10 µM |  |  |  |  |
| COc1c(O)c2c3c(c1O)C(=O)[C@@]1(O)C(=C3C(C)=CC2=O)O[C@H](C)C1(C)C [Compound 8, herqueinone] | > 10 µM | > 20 µM | > 40 µM | > 10 µM |  |  |  |  |
| COc1c(O)c2c3c(c1O)C(=O)[C@@]1(O)C(=C3C(C)=CC2=O)O[C@@H](C)C1(C)C [Compound 9, isoherqueinone] | > 10 µM | > 20 µM | > 40 µM | > 10 µM |  | 39.7 µM | 39.7 µM |  |
| Cc1cc(O)c2c3c(c(O)c4c(c13)O[C@@H](C)C4(C)C)C(=O)OC2=O [Compound 10, sclerodin] | > 10 µM | > 20 µM | > 40 µM | > 10 µM |  |  |  |  |
| Cc1cc(O)c2c3c(c(O)c4c(c13)O[C@@H](C)C4(C)C)C(=O)C(=O)O2 [Compound 11, scleroderolide] | > 10 µM | > 20 µM | > 40 µM | > 10 µM |  |  |  |  |
| CCc1ccc(CCOc2ccc(CC3SC(=O)NC3=O)cc2)nc1 (stereo not shown) [Pioglitazone, pioglitazone, reference compound] |  |  |  |  |  |  | 0.69 µM |  |
| CCN(CC)CCNC(=O)c1c(C)[nH]c(/C=C2\C(=O)Nc3ccc(F)cc32)c1C [Sunitinib, reference compound] |  |  | 1.5 µM |  |  |  |  |  |
